The source made the active and inactive calls. No rule for the calls is given here.
System: CCRIS mutagenicity, Ames/micronucleus/aberration tests
Test: CCRIS mutagenicity studies
[1] = Test System: AMES SALMONELLA TYPHIMURIUM, Strain/Indicator: TA98, Metabolic Activation: NONE, Method: PREINCUBATION
[2] = Test System: AMES SALMONELLA TYPHIMURIUM, Strain/Indicator: TA100, Metabolic Activation: NONE, Method: PREINCUBATION
[3] = Test System: AMES SALMONELLA TYPHIMURIUM, Strain/Indicator: TA1535, Metabolic Activation: NONE, Method: PREINCUBATION
[4] = Test System: AMES SALMONELLA TYPHIMURIUM, Strain/Indicator: TA98, Metabolic Activation: NONE, Method: STANDARD PLATE
[5] = Test System: AMES SALMONELLA TYPHIMURIUM, Strain/Indicator: TA98, Metabolic Activation: RAT, LIVER, S-9, AROCLOR 1254, Method: STANDARD PLATE
[6] = Test System: AMES SALMONELLA TYPHIMURIUM, Strain/Indicator: TA100, Metabolic Activation: NONE, Method: STANDARD PLATE
[7] = Test System: AMES SALMONELLA TYPHIMURIUM, Strain/Indicator: TA100, Metabolic Activation: RAT, LIVER, S-9, AROCLOR 1254, Method: STANDARD PLATE

With `N#CCc1ccccc1[N+](=O)[O-]` the mutagenic call (Test System: AMES SALMONELLA TYPHIMURIUM, Strain/Indicator: TA97, Metabolic Activation: HAMSTER, LIVER, S-9, AROCLOR 1254 (10%), Method: PREINCUBATION) was “inactive; negative”, the mutagenic call (Test System: AMES SALMONELLA TYPHIMURIUM, Strain/Indicator: TA97, Metabolic Activation: NONE, Method: PREINCUBATION) was “active; positive” and the mutagenic call (Test System: AMES SALMONELLA TYPHIMURIUM, Strain/Indicator: TA97, Metabolic Activation: RAT, LIVER, S-9, AROCLOR 1254 (10%), Method: PREINCUBATION) was “inactive; negative”. The mutagenic call (Test System: AMES SALMONELLA TYPHIMURIUM, Strain/Indicator: TA98, Metabolic Activation: HAMSTER, LIVER, S-9, AROCLOR 1254 (10%), Method: PREINCUBATION) was “inactive; negative”, the mutagenic call [1] was “active; positive” and the mutagenic call (Test System: AMES SALMONELLA TYPHIMURIUM, Strain/Indicator: TA98, Metabolic Activation: RAT, LIVER, S-9, AROCLOR 1254 (10%), Method: PREINCUBATION) was “inactive; negative”. The mutagenic call (Test System: AMES SALMONELLA TYPHIMURIUM, Strain/Indicator: TA100, Metabolic Activation: HAMSTER, LIVER, S-9, AROCLOR 1254 (10%), Method: PREINCUBATION) was “active; positive”, the mutagenic call [2] was “active; positive” and the mutagenic call (Test System: AMES SALMONELLA TYPHIMURIUM, Strain/Indicator: TA100, Metabolic Activation: RAT, LIVER, S-9, AROCLOR 1254 (10%), Method: PREINCUBATION) was “active; positive”. For the same molecule, the mutagenic call (Test System: AMES SALMONELLA TYPHIMURIUM, Strain/Indicator: TA1535, Metabolic Activation: HAMSTER, LIVER, S-9, AROCLOR 1254 (10%), Method: PREINCUBATION) was “active; positive”, the mutagenic call [3] was “inactive; negative” and the mutagenic call (Test System: AMES SALMONELLA TYPHIMURIUM, Strain/Indicator: TA1535, Metabolic Activation: RAT, LIVER, S-9, AROCLOR 1254 (10%), Method: PREINCUBATION) was “active; positive”.
In the case of `CC(C)c1cc(N)cc([N+](=O)[O-])c1N`, the mutagenic call [4] is reported as “inactive; negative”, the mutagenic call [5] is reported as “inactive; negative” and the mutagenic call [6] is reported as “inactive; negative”. The mutagenic call [7] was “inactive; negative”, the mutagenic call (Test System: AMES SALMONELLA TYPHIMURIUM, Strain/Indicator: TA1538, Metabolic Activation: NONE, Method: STANDARD PLATE) was “inactive; negative” and the mutagenic call (Test System: AMES SALMONELLA TYPHIMURIUM, Strain/Indicator: TA1538, Metabolic Activation: RAT, LIVER, S-9, AROCLOR 1254, Method: STANDARD PLATE) was “inactive; negative”.
For `CC(=O)c1ccc(NO)cc1`, the mutagenic call [6] was “active; positive”, the mutagenic call (Test System: AMES SALMONELLA TYPHIMURIUM, Strain/Indicator: TA1535, Metabolic Activation: NONE, Method: STANDARD PLATE) was “inactive; negative” and the mutagenic call (Test System: E. COLI, Strain/Indicator: WP2 UVRA(P), Metabolic Activation: NONE, Method: STANDARD PLATE) was “active; positive”. The mutagenic call (Test System: E. COLI, Strain/Indicator: WP2 UVRA, Metabolic Activation: NONE, Method: FLUCTUATION TEST) was “inactive; negative” and the mutagenic call (Test System: E. COLI, Strain/Indicator: WP2 UVRA, Metabolic Activation: NONE, Method: STANDARD PLATE) was “active; positive”.
`COc1ccc(C(O)(c2cncnc2)C2CC2)cc1` (stereo unspecified) was tested, and the mutagenic call (Test System: Ames Salmonella typhimurium, Strain/Indicator: TA98, Metabolic Activation: None, Method: Standard Plate) was “inactive; negative”, the mutagenic call (Test System: Ames Salmonella typhimurium, Strain/Indicator: TA98, Metabolic Activation: Rat, liver, S-9, Method: Standard Plate) was “inactive; negative” and the mutagenic call (Test System: Ames Salmonella typhimurium, Strain/Indicator: TA100, Metabolic Activation: None, Method: Standard Plate) was “inactive; negative”. The mutagenic call (Test System: Ames Salmonella typhimurium, Strain/Indicator: TA100, Metabolic Activation: Rat, liver, S-9, Method: Standard Plate) was “inactive; negative”, the mutagenic call (Test System: Ames Salmonella typhimurium, Strain/Indicator: TA1535, Metabolic Activation: None, Method: Standard Plate) was “inactive; negative” and the mutagenic call (Test System: Ames Salmonella typhimurium, Strain/Indicator: TA1535, Metabolic Activation: Rat, liver, S-9, Method: Standard Plate) was “inactive; negative”. The mutagenic call (Test System: Ames Salmonella typhimurium, Strain/Indicator: TA1537, Metabolic Activation: None, Method: Standard Plate) was “inactive; negative”, the mutagenic call (Test System: Ames Salmonella typhimurium, Strain/Indicator: TA1537, Metabolic Activation: Rat, liver, S-9, Method: Standard Plate) was “inactive; negative” and the mutagenic call (Test System: Ames Salmonella typhimurium, Strain/Indicator: TA1538, Metabolic Activation: None, Method: Standard Plate) was “inactive; negative”. The mutagenic call (Test System: Ames Salmonella typhimurium, Strain/Indicator: TA1538, Metabolic Activation: Rat, liver, S-9, Method: Standard Plate) was “inactive; negative”, the mutagenic call (Test System: Mouse lymphoma, Strain/Indicator: L5178Y (TK+/TK-), Metabolic Activation: None, Method: Suspension/Plate) was “inactive; negative” and the mutagenic call (Test System: Mouse lymphoma, Strain/Indicator: L5178Y (TK+/TK-), Metabolic Activation: S-9 of unspecified origin, Method: Suspension/Plate) was “inactive; negative”.
In the case of `c1ccc2cc3c(ccc4cccnc43)cc2c1`, the mutagenic call [4] is reported as “inactive; negative”, the mutagenic call [5] is reported as “active; positive” and the mutagenic call [6] is reported as “inactive; negative”. The mutagenic call [7] was “inactive; negative”.
`Cc1c2cccc(F)c2c(C)c2c1ccc1ccccc12` was tested, and the mutagenic call (Test System: CHINESE HAMSTER V-79, Strain/Indicator: V-79/OUABAIN, Metabolic Activation: CELL-MEDIATED, Method: STANDARD PLATE) was “active; positive”.
With `CNC(=C[N+](=O)[O-])NCCSCc1ccc(CN(C)C)o1` the mutagenic call (Test System: AMES SALMONELLA TYPHIMURIUM, Strain/Indicator: TA92, Metabolic Activation: NONE, Method: PREINCUBATION) was “inactive; negative”, the mutagenic call (Test System: AMES SALMONELLA TYPHIMURIUM, Strain/Indicator: TA92, Metabolic Activation: RAT, LIVER, S-9, PHENOBARBITAL AND 5,6-BENZOFLAVONE, Method: PREINCUBATION) was “inactive; negative” and the mutagenic call (Test System: AMES SALMONELLA TYPHIMURIUM, Strain/Indicator: TA94, Metabolic Activation: NONE, Method: PREINCUBATION) was “inactive; negative”. For the same molecule, the mutagenic call (Test System: AMES SALMONELLA TYPHIMURIUM, Strain/Indicator: TA94, Metabolic Activation: RAT, LIVER, S-9, PHENOBARBITAL AND 5,6-BENZOFLAVONE, Method: PREINCUBATION) was “inactive; negative”, the mutagenic call [1] was “inactive; negative” and the mutagenic call (Test System: AMES SALMONELLA TYPHIMURIUM, Strain/Indicator: TA98, Metabolic Activation: RAT, LIVER, S-9, PHENOBARBITAL AND 5,6-BENZOFLAVONE, Method: PREINCUBATION) was “inactive; negative”. The mutagenic call [2] was “inactive; negative”, the mutagenic call (Test System: AMES SALMONELLA TYPHIMURIUM, Strain/Indicator: TA100, Metabolic Activation: RAT, LIVER, S-9, PHENOBARBITAL AND 5,6-BENZOFLAVONE, Method: PREINCUBATION) was “inactive; negative” and the mutagenic call [3] was “inactive; negative”. For the same molecule, the mutagenic call (Test System: AMES SALMONELLA TYPHIMURIUM, Strain/Indicator: TA1535, Metabolic Activation: RAT, LIVER, S-9, PHENOBARBITAL AND 5,6-BENZOFLAVONE, Method: PREINCUBATION) was “inactive; negative”, the mutagenic call (Test System: AMES SALMONELLA TYPHIMURIUM, Strain/Indicator: TA1537, Metabolic Activation: NONE, Method: PREINCUBATION) was “inactive; negative” and the mutagenic call (Test System: AMES SALMONELLA TYPHIMURIUM, Strain/Indicator: TA1537, Metabolic Activation: RAT, LIVER, S-9, PHENOBARBITAL AND 5,6-BENZOFLAVONE, Method: PREINCUBATION) was “inactive; negative”. For the same molecule, the mutagenic call (Test System: AMES SALMONELLA TYPHIMURIUM, Strain/Indicator: TA1538, Metabolic Activation: NONE, Method: PREINCUBATION) was “inactive; negative”, the mutagenic call (Test System: AMES SALMONELLA TYPHIMURIUM, Strain/Indicator: TA1538, Metabolic Activation: RAT, LIVER, S-9, PHENOBARBITAL AND 5,6-BENZOFLAVONE, Method: PREINCUBATION) was “inactive; negative” and the mutagenic call (Test System: E. COLI, Strain/Indicator: WP2 UVRA, Metabolic Activation: NONE, Method: PREINCUBATION) was “inactive; negative”. For the same molecule, the mutagenic call (Test System: E. COLI, Strain/Indicator: WP2 UVRA, Metabolic Activation: RAT, LIVER, S-9, PHENOBARBITAL AND 5,6-BENZOFLAVONE, Method: PREINCUBATION) was “inactive; negative”.

Source: PubChem BioAssay AID1259407 (Chemical Carcinogenesis Research Information System (CCRIS), 2018)
